# Values of other authors as cited in patent publication US20060275294A1, “METHOD OF PREVENTION AND TREATMENT OF AGING, AGE-RELATED DISORDERS AND/OR AGE-RELATED MANIFESTATIONS INCLUDING ATHEROSCLEROSIS, PERIPHERAL VASCULAR DISEASE, CORONARY ARTERY DISEASE, OSTEOPOROSIS, ARTHRITIS, TYPE 2 DIABETES, DEMENTIA, ALZHEIMERS DISEASE AND CANCER” (priority 2002, published 2006).
# Like-named read-outs stand apart in the source and are kept apart here.
# B1: adiponectin: adiponectin (protein, UniProt Q15848 19-244, looked up)
# Adiponectin: ETTTQGPGVLLPLPKGACTGWMAGIPGHPGHNGAPGRDGRDGTPGEKGEKGDPGLIGPKGDIGETGVPGAEGPRGFPGIQGRKGEPGEGAYVYRSAFSVGLETYVTIPNMPIRFTKIFYNQQNHYDGSTGKFHCNIPGLYYFAYHITVYMKDVKVSLFKKDKAMLFTYDQYQENNVDQASGSVLLHLEVGDQVWLQVYGEGERNGLYADNDNDSTFTGFLLYHDTN
# Experiments:
# [1] = system: aortic strips isolated from virgin and late pregnant Sprague-Dawley rats; details: cited from earlier work; for increase in active stress: 10^-5 M, endothelium-intact strips; for enhancement of Phe contraction: 1,000 pg/ml
# [2] = in vivo, sc; cited from earlier work
# rats = details: synthetic diet for 21 days; cited from earlier work
# Yorkshire swine = details: 20 mg/kg/day, 5 months, cited from earlier work
# [3] = system: subjects with type 2 diabetes associated with osteopenia; details: 200 mg/day for 2 weeks every 3 months, 1 yr; cited from earlier work
# [4] = system: human endothelial cells (EC); details: 100 ug/ml for DHA, EPA; 24 h supernatants, ELISA; cited from earlier work
# [5] = system: rat vascular smooth muscle cells; details: cited from earlier work
# STAT3 and ERK1/2 = details: cited from earlier work
# myeloma cell lines = details: cited from earlier work
# JB6 cell = details: cited from earlier work
# [6] = target: fAbeta(1-40) and fAbeta(1-42) (Homo sapiens, UniProt P05067); details: cited from earlier work; for fAbeta formation from Abeta(1-40) and Abeta(1-42): in vitro
# IKKbeta = IKKbeta (Homo sapiens, UniProt O14920); details: cited from earlier work
# [7] = system: cultured human astrocytes; details: cited from earlier work
# [8] = system: three human pancreatic cancer cell types; details: cited from earlier work
# STAT1 and STAT3 = details: cited from earlier work
# Rat VSMC = details: 50 microM, IL-6 stimulated; cited from earlier work
# Male Wistar rats [9] = details: rats; cited from earlier work
# mice = details: mouse, in vivo; cited from earlier work
# Male Wistar rats [10] = details: administered to every diet group; cited from earlier work
# IL-6 = details: in vitro; cited from earlier work
# Wistar rats = details: cited from earlier work
# [11] = system: human microvascular endothelial cells (EC); details: cited from earlier work
# Jurkat T cells = details: cited from earlier work
# [12] = system: rat primary astrocytes, microglia, and macrophages; details: cited from earlier work
# [13] = system: IL-1 beta, IL-6, and TNF-alpha; details: cited from earlier work
# [14] = system: in-patients with advanced (stage III) Huntington's disease; details: 6 months; cited from earlier work
# [15] = system: human prostate carcinoma PC-3 cell line; details: cited from earlier work
# [16] = system: rats with adjuvant arthritic chronic pain; details: cited from earlier work
# MM cells = details: cited from earlier work
# [17] = system: Primary adipocytes from pig subcutaneous adipose tissue; details: cited from earlier work
# Sequence of fAbeta(1-40) and fAbeta(1-42) (P05067 672-711 limits assumed): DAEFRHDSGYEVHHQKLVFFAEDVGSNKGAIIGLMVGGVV
# Sequence of IKKbeta (O14920 whole entry, species assumed): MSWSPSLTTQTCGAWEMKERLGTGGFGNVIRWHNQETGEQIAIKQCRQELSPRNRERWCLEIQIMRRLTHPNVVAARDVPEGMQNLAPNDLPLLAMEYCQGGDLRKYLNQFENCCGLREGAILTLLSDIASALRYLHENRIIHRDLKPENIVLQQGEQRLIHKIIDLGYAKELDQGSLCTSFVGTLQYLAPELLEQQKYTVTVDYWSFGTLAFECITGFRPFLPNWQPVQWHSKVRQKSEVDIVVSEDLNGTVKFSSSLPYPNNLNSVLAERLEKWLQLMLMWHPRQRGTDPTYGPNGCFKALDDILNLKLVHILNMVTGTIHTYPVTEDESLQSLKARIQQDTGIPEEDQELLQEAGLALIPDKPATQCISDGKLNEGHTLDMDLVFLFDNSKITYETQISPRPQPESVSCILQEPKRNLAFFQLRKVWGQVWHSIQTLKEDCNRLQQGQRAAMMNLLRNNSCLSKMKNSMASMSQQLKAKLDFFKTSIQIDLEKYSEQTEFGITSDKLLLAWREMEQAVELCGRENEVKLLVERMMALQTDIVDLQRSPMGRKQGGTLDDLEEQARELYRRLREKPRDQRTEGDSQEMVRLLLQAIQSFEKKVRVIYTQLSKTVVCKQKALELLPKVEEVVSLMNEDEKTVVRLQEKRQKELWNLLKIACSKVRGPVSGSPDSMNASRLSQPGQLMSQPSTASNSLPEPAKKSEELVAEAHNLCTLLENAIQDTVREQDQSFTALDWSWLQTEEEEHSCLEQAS
molecule,measurement,setting,value
CNC[C@H](O)c1cccc(O)c1 [phenylephrine],increase in active stress,[1]; pregnant rats,4.2±0.3 ×104 N/m2
same,increase in active stress,[1]; virgin rats,5.1±0.3 ×104 N/m2
IL-6: interleukin-6 cytokine,adverse effects of subcutaneous administration,[2],"cardiac arrhythmias, hepatotoxicity"
same,enhancement of Phe contraction,[1]; pregnant rats,10.6±0.7 ×104 N/m2
same,enhancement of Phe contraction,[1]; virgin rats,7.5±0.4 ×104 N/m2
vitamin E,endotoxin induced IL-6 concentration,rats,significantly lower
"CC(O)(P(=O)(O)O)P(=O)(O)O [EHDP, ethane-1-hydroxy-1,1-diphosphonate]","extent of lesions, ratio of intima to media",Yorkshire swine; vs HL diet only,significantly less
same,lesion calcium,Yorkshire swine,significantly less
same,ratio of lipid-rich necrotic debris area to area of media,Yorkshire swine,significantly smaller
CC(O)(P(=O)(O)O)P(=O)(O)O [etidronate],change in intima-media thickness (mean±SE),[3],−0.038±0.011 mm
CCCCC/C=C\C/C=C\C/C=C\C/C=C\CCCC(=O)O [Arachidonic acid],production of IL-6 by unstimulated or stimulated EC,[4],ineffective
CCOc1nc2cccc(C(=O)O)c2n1Cc1ccc(-c2ccccc2-c2nnn[nH]2)cc1 [CV11974],expression of IL-6 mRNA induced by Ang II,[5],completely blocked
Cn1cncc1[C@@](N)(c1ccc(Cl)cc1)c1ccc2c(c1)c(-c1cccc(Cl)c1)cc(=O)n2C [R115777],phosphorylation of STAT3 and ERK1/2 induced by IL-6,STAT3 and ERK1/2; 10 and 5 microM,partially blocked
same,phosphorylation of STAT3 and ERK1/2 induced by IL-6,STAT3 and ERK1/2; 15 microM,totally blocked
same,growth of three myeloma cell lines,myeloma cell lines,significant and dose-dependent growth inhibition
same,apoptosis,myeloma cell lines; myeloma cells,significant and time-dependent apoptosis
"S=C=NCCc1ccccc1 [PEITC, phenethyl isothiocyanate]",cell transformation,JB6 cell,inhibited cell transformation
"O=C(OC[C@H]1O[C@@H](OC(=O)c2cc(O)c(O)c(OC(=O)c3cc(O)c(O)c(O)c3)c2)[C@H](OC(=O)c2cc(O)c(O)c(OC(=O)c3cc(O)c(O)c(O)c3)c2)[C@@H](OC(=O)c2cc(O)c(O)c(OC(=O)c3cc(O)c(O)c(O)c3)c2)[C@@H]1OC(=O)c1cc(O)c(O)c(OC(=O)c2cc(O)c(O)c(O)c2)c1)c1cc(O)c(O)c(OC(=O)c2cc(O)c(O)c(O)c2)c1 [TA, tannic acid]",fAbeta formation from Abeta(1-40) and Abeta(1-42),[6],dose-dependently inhibited
same,EC50,"[6]; pH 7.5, 37 degrees C, read-out: effective concentrations (EC50) for formation, extension and destabilization of fAbetas",< 100 nM
Oc1ccc(C=Cc2cc(O)cc(O)c2)cc1 [resveratrol],cell transformation,JB6 cell,inhibited cell transformation
same,activation of IKKbeta,IKKbeta,inhibit or suppress
CN(C)CCCn1cc(C2=C(c3c[nH]c4ccccc34)C(=O)NC2=O)c2ccccc21 [GF109203X],PDBu-increased secretion of APPalpha,[7],blocked
"O=P(O)(O)O[C@H]1[C@H](OP(=O)(O)O)[C@@H](OP(=O)(O)O)[C@H](OP(=O)(O)O)[C@@H](OP(=O)(O)O)[C@H]1OP(=O)(O)O [InsP6, inositol hexaphosphate]",cell transformation,JB6 cell,inhibited
Cc1ccc(NC(=O)c2ccc(CN3CCN(C)CC3)cc2)cc1Nc1nccc(-c2cccnc2)n1 [Gleevec],inhibition of proliferation,[8],ineffective
N#C/C(=C/c1ccc(O)c(O)c1)C(=O)NCc1ccccc1 [AG490],CuLDL-induced enhancement of STAT1 and STAT3 Tyr-phosphorylation and DNA-binding activity,STAT1 and STAT3,markedly prevented
same,DNA synthesis,Rat VSMC,near complete inhibition
same,STAT 3 activation and MCP-1 production,Rat VSMC,partially inhibited
Oc1cc(O)c2c(c1)O[C@H](c1cc(O)c(O)c(O)c1)[C@H](O)C2 [Epigallocatechin],myocardial ischemia reperfusion injury,Male Wistar rats [9],attenuates
Lavendustin,inhibition of proliferation,[8],ineffective
C=C(CC[C@]12O[C@H](C(=O)O)[C@@](O)(C(=O)O)[C@](C(=O)O)(O1)[C@H](OC(=O)/C=C/[C@@H](C)C[C@@H](C)CC)[C@H]2O)[C@@H](OC(C)=O)[C@H](C)Cc1ccccc1 [squalestatin],anti-inflammatory effect,mice,did not have any anti-inflammatory effect
COc1ccc2c(c1)c(CC(=O)O)c(C)n2C(=O)c1ccc(Cl)cc1 [Indomethacin],inflammatory process in adjuvant arthritis,Male Wistar rats [10],strong inhibitory effect
"C[C@]12CC[C@@H]3c4ccc(O)cc4CC[C@H]3[C@@H]1CC[C@@H]2O [estradiol, 17beta-estradiol]",IL-6 protein and mRNA production,IL-6,inhibits
"C[C@@H]1O[C@@H](OC[C@H]2O[C@@H](Oc3c(-c4ccc(O)c(O)c4)oc4cc(O)cc(O)c4c3=O)[C@H](O)[C@@H](O)[C@@H]2O)[C@H](O)[C@H](O)[C@H]1O [rutin, quercetin-3-O-glucose rhamnose]",mean plasma concentration of active metabolites (quercetin and isorhamnetin),"Wistar rats; OVX+R rats, HPLC",9.46 ± 1 µM
same,uterotrophic activity,"Wistar rats; rat, in vivo",devoid of any uterotrophic activity
O=P([O-])(O)C(NC1CCCCCC1)P(=O)([O-])O.[Na+].[Na+] [incadronate disodium],activation of NF-kappaB and AP-1 and up-regulation of VEGF mRNA,[11]; AGE-exposed EC,significantly prevented
same,AGE-induced increase in DNA synthesis and tube formation,[11],completely inhibit
"Oc1cc(O)c2c(c1)OC(c1ccc(O)c(O)c1)C(O)C2 (single isomer, unassigned; (+)) [CT, (+)-catechin]",PMA-triggered increase in cell oxidants,"Jurkat T cells; 1.7-17.2 microM, 24 h preincubation",prevented
same,PMA-induced NF-kappaB binding activity and transactivation of IL-2,Jurkat T cells; pretreatment,decreased
"CC(Cc1ccc(O)c(O)c1)C(C)Cc1ccc(O)c(O)c1 (stereo not shown) [NDGA, Nordihydroguaiaretic acid]",fAbeta formation from Abeta(1-40) and Abeta(1-42),[6],inhibit
O=C([O-])Cc1ccccc1.[Na+] [sodium phenylacetate],LPS-mediated activation of NF kappa B,[12]; astrocytes,Inhibition
same,"LPS-induced expression of TNF-alpha, IL-1beta, and IL-6","[12]; rat primary astrocytes, microglia, macrophages",inhibited
same,LPS and cytokine-mediated production of NO and expression of iNOS,[12]; rat primary astrocytes,inhibit
CO[C@H]1[C@@H](OC)C[C@H](C)[C@@H](OC)C2=CC(=O)C=C(NC(=O)/C(C)=C/C=C\[C@H](OC)[C@@H](OC(N)=O)/C(C)=C/[C@@H]1C)C2=O [herbimycin A],IC50,"[8]; three cell lines, read-out: mean IC(50) proliferation",1710 nM
same,"LPS-induced increase in IL-1 beta, IL-6, and TNF-alpha mRNA levels",[13]; 1.7 microM,completely or more than 80% blocked
same,LPS activation of NF-kappa B,[13],reduced
same,LPS-induced IL-6 protein synthesis and IL-6 bioactivity,[13],reduced to baseline levels
"CC/C=C\C/C=C\C/C=C\C/C=C\C/C=C\CCCC(=O)OCC [ethyl-EPA, ethyl-ester of eicosapentaenoic acid]",orofacial component of the Unified Huntington's Disease Rating Scale,[14],improved
C=C(C)[C@@H]1CC=C(C(=O)O)CC1 [perillic acid],"IL-6- and OM-mediated effects (growth, resistance to etoposide and cisplatin)",[15],inhibited
"CC(C)Oc1ccc2c(=O)c(-c3ccccc3)coc2c1 [ipriflavone, 7-isopropoxyisoflavone]",analgesic effects,"[16]; 100 mg/kg/day oral, 2 weeks after start",Analgesic effects were observed
same,"synovitis, periosteal new bone formation and bone destruction","[16]; 3 weeks, females",improved
"CCCC(=O)O[C@@H]1[C@@H](C)[C@@]2(O)[C@@H](C=C(CO)C[C@]3(O)C(=O)C(C)=C[C@@H]23)[C@@H]2C(C)(C)[C@]12OC(=O)CCC [PDBu, Phorbol 12, 13-dibutyrate]",increase of secretion of APPalpha over control,[7],2-3 fold
"COc1cc(/C=C/C(=O)CC(=O)/C=C/c2ccc(O)c(OC)c2)ccc1O [curcumin, diferuloylmethane]","adhesion to bone marrow stromal cells, cytokine secretion, viability of cells",MM cells; ex vivo treatment of patient MM cells,decrease
same,expression of NF-kappaB-regulated gene products incl. interleukin-6,MM cells; human MM cells,down-regulated
B1,NF-kappaB activation and induction of IL-6 expression by LPS,"[17]; 30 microg/ml, LPS 10 microg/ml",suppressed
same,PPARgamma2 mRNA,[17],upregulation
